Results as given in the NIST ThermoML archive (doi:10.1021/je060271a).
Values joined by “and” are separate entries in the source; they are usually repeats but may differ in a detail not shown here. Equal entries are not always repeated.

Conditions: 343.15 K, Liquid, Vibrating tube method

CCCCCCC(=O)OCC(COC(=O)CCCCCC)(COC(=O)CCCCCC)COC(=O)CCCCCC [pentaerythritol tetraheptanoate]
Conditions | mass density
23684 kPa | 957.2 kg/m3
23715 kPa | 957.3 kg/m3
23750 kPa | 957.4 kg/m3
23753 kPa | 957.2 kg/m3
23785 kPa | 957.4 kg/m3
23818 kPa | 957.3 kg/m3
23850 kPa | 957.4 kg/m3
23889 kPa | 957.4 kg/m3
23920 kPa | 957.3 kg/m3
23952 kPa | 957.4 kg/m3
23991 kPa | 957.4 kg/m3
24024 kPa | 957.5 kg/m3
24056 kPa | 957.6 kg/m3
24094 kPa | 957.5 kg/m3
24127 kPa | 957.6 kg/m3
24128 kPa | 957.6 kg/m3
24160 kPa | 957.5 kg/m3
24199 kPa | 957.7 kg/m3
24200 kPa | 957.5 kg/m3
24232 kPa | 957.6 kg/m3
24233 kPa | 957.6 kg/m3
24265 kPa | 957.6 kg/m3
24266 kPa | 957.8 kg/m3
24299 kPa | 957.6 kg/m3
24306 kPa | 957.6 kg/m3
24334 kPa | 957.8 kg/m3
24339 kPa | 957.7 kg/m3
24372 kPa | 957.7 kg/m3
24373 kPa | 957.8 kg/m3
24407 kPa | 957.7 kg/m3
24411 kPa | 957.8 kg/m3
24440 kPa | 957.7 kg/m3
24445 kPa | 957.8 kg/m3
24478 kPa | 957.8 kg/m3
24480 kPa | 957.8 kg/m3
24513 kPa | 957.8 kg/m3
24519 kPa | 957.7 kg/m3
24552 kPa | 957.7 kg/m3
24554 kPa | 957.8 kg/m3
24586 kPa | 957.9 kg/m3
24621 kPa | 958 kg/m3
24626 kPa | 957.9 kg/m3
24661 kPa | 957.9 kg/m3
24696 kPa | 957.9 kg/m3
24737 kPa | 957.9 kg/m3
24771 kPa | 957.9 kg/m3
24806 kPa | 957.9 kg/m3
24840 kPa | 958 kg/m3
24882 kPa | 958 kg/m3
24916 kPa | 958.1 kg/m3
24917 kPa | 958.1 kg/m3
24952 kPa | 958.1 kg/m3 and 958.2 kg/m3
24988 kPa | 958.2 kg/m3
24993 kPa | 958.1 kg/m3
25028 kPa | 958.2 kg/m3
25070 kPa | 958.2 kg/m3
25105 kPa | 958.1 kg/m3
25141 kPa | 958.2 kg/m3
25148 kPa | 958.1 kg/m3
25184 kPa | 958.3 kg/m3
25220 kPa | 958.2 kg/m3
25250 kPa | 958.4 kg/m3
25256 kPa | 958.1 kg/m3
25279 kPa | 958.4 kg/m3
25292 kPa | 958.2 kg/m3
25308 kPa | 958.3 kg/m3
25336 kPa | 958.4 kg/m3
25343 kPa | 958.5 kg/m3
25372 kPa | 958.2 kg/m3 and 958.5 kg/m3
25402 kPa | 958.5 kg/m3
25415 kPa | 958.3 kg/m3
25452 kPa | 958.3 kg/m3
25488 kPa | 958.3 kg/m3
25525 kPa | 958.4 kg/m3
25530 kPa | 958.5 kg/m3
25560 kPa | 958.5 kg/m3
25570 kPa | 958.4 kg/m3
25590 kPa | 958.5 kg/m3
25607 kPa | 958.6 kg/m3
25626 kPa | 958.5 kg/m3
25645 kPa | 958.4 kg/m3
25656 kPa | 958.6 kg/m3
25687 kPa | 958.6 kg/m3
25692 kPa | 958.5 kg/m3
25723 kPa | 958.6 kg/m3
25730 kPa | 958.5 kg/m3
25752 kPa | 958.6 kg/m3
25767 kPa | 958.6 kg/m3
25788 kPa | 958.7 kg/m3
25805 kPa | 958.7 kg/m3
25819 kPa | 958.6 kg/m3
25843 kPa | 958.6 kg/m3
25849 kPa | 958.6 kg/m3
25885 kPa | 958.7 kg/m3
25888 kPa | 958.5 kg/m3
25915 kPa | 958.7 kg/m3
25927 kPa | 958.6 kg/m3
25946 kPa | 958.8 kg/m3
25966 kPa | 958.7 kg/m3
25983 kPa | 958.8 kg/m3
26012 kPa | 958.8 kg/m3
26014 kPa | 958.9 kg/m3
26045 kPa | 958.9 kg/m3
26050 kPa | 958.8 kg/m3
26082 kPa | 958.8 kg/m3
26090 kPa | 958.7 kg/m3
26114 kPa | 958.9 kg/m3
26136 kPa | 958.8 kg/m3
26145 kPa | 958.8 kg/m3
26176 kPa | 958.9 kg/m3 and 958.8 kg/m3
26214 kPa | 958.9 kg/m3
26217 kPa | 958.9 kg/m3
26244 kPa | 959 kg/m3
26256 kPa | 958.9 kg/m3
26282 kPa | 958.9 kg/m3
26296 kPa | 959 kg/m3
26313 kPa | 959 kg/m3
26343 kPa | 958.9 kg/m3
26345 kPa | 959 kg/m3
26383 kPa | 959 kg/m3 and 959.1 kg/m3
26414 kPa | 958.9 kg/m3
26430 kPa | 959 kg/m3
26447 kPa | 959 kg/m3
26470 kPa | 959 kg/m3
26485 kPa | 959.1 kg/m3
26510 kPa | 959 kg/m3
26518 kPa | 959.2 kg/m3
26549 kPa | 959.1 kg/m3
26550 kPa | 959.2 kg/m3
26583 kPa | 959.2 kg/m3
26597 kPa | 959.3 kg/m3
26622 kPa | 959.1 kg/m3
26638 kPa | 959.2 kg/m3
26654 kPa | 959.2 kg/m3
26679 kPa | 959.1 kg/m3
26693 kPa | 959.1 kg/m3
26725 kPa | 959.3 kg/m3
26729 kPa | 959.2 kg/m3
26758 kPa | 959.2 kg/m3
26771 kPa | 959.3 kg/m3
26791 kPa | 959.3 kg/m3
26812 kPa | 959.3 kg/m3
26831 kPa | 959.4 kg/m3
26863 kPa | 959.2 kg/m3
26864 kPa | 959.3 kg/m3
26898 kPa | 959.4 kg/m3
26905 kPa | 959.3 kg/m3
26939 kPa | 959.3 kg/m3
26949 kPa | 959.3 kg/m3
26999 kPa | 959.3 kg/m3
27006 kPa | 959.3 kg/m3
27037 kPa | 959.4 kg/m3
27071 kPa | 959.4 kg/m3
27081 kPa | 959.5 kg/m3
27111 kPa | 959.5 kg/m3
27114 kPa | 959.5 kg/m3
27145 kPa | 959.5 kg/m3
27148 kPa | 959.5 kg/m3
27186 kPa | 959.5 kg/m3
27189 kPa | 959.6 kg/m3
27221 kPa | 959.5 kg/m3
27224 kPa | 959.6 kg/m3
27256 kPa | 959.5 kg/m3
27258 kPa | 959.6 kg/m3
27290 kPa | 959.6 kg/m3
27300 kPa | 959.5 kg/m3
27332 kPa | 959.6 kg/m3
27335 kPa | 959.7 kg/m3
27367 kPa | 959.7 kg/m3
27371 kPa | 959.6 kg/m3
27402 kPa | 959.6 kg/m3
27408 kPa | 959.7 kg/m3
27444 kPa | 959.6 kg/m3
27447 kPa | 959.7 kg/m3
27479 kPa | 959.7 kg/m3
27514 kPa | 959.7 kg/m3
27556 kPa | 959.7 kg/m3
27590 kPa | 959.8 kg/m3
27592 kPa | 959.8 kg/m3
27618 kPa | 959.8 kg/m3
27627 kPa | 959.8 kg/m3
27670 kPa | 959.9 kg/m3
27698 kPa | 959.7 kg/m3
27742 kPa | 959.8 kg/m3
27786 kPa | 959.9 kg/m3
27822 kPa | 959.8 kg/m3
27858 kPa | 959.9 kg/m3
27877 kPa | 959.9 kg/m3
27902 kPa | 960.1 kg/m3
27910 kPa | 960 kg/m3
27939 kPa | 960 kg/m3
27975 kPa | 959.9 kg/m3
28012 kPa | 959.9 kg/m3
28056 kPa | 960 kg/m3
28087 kPa | 960.2 kg/m3
28093 kPa | 960 kg/m3
28116 kPa | 960.2 kg/m3
28137 kPa | 960.1 kg/m3
28144 kPa | 960.1 kg/m3
28175 kPa | 960.1 kg/m3
28178 kPa | 960.2 kg/m3
28207 kPa | 960.1 kg/m3
28213 kPa | 960.2 kg/m3
28236 kPa | 960.1 kg/m3
28251 kPa | 960.2 kg/m3
28269 kPa | 960.2 kg/m3
28288 kPa | 960.2 kg/m3
28298 kPa | 960.3 kg/m3
28327 kPa | 960.2 kg/m3
28333 kPa | 960.2 kg/m3
28361 kPa | 960.4 kg/m3
28370 kPa | 960.2 kg/m3
28389 kPa | 960.3 kg/m3
28416 kPa | 960.3 kg/m3
28418 kPa | 960.3 kg/m3
28453 kPa | 960.3 kg/m3
28454 kPa | 960.3 kg/m3
28476 kPa | 960.5 kg/m3
28492 kPa | 960.3 kg/m3
28511 kPa | 960.3 kg/m3
28538 kPa | 960.4 kg/m3
28540 kPa | 960.4 kg/m3
28576 kPa | 960.4 kg/m3
28605 kPa | 960.4 kg/m3
